From patent EP3266784A1, “PROTEIN ARGININE N-METHYLTRANSFERASES INHIBITORS AND USES THEREOF” (PIERRE FABRE MEDICAMENT, priority 2016, dated 2018)

Assays:
Format in all cases: biochemical
human PRMT4 enzyme = molecular target: T1, human PRMT4 enzyme (Homo sapiens, UniProt Q86X55); assay: PRMT4 inhibition assay (radioactive [3H]SAM methyl transfer, filter binding); conditions: 60 nM [3H]SAM, 25 nM Histone H3 full length, 1 h at 22°C; for IC50: read-out: PRMT4/CARM1 IC50; for inhibition at 100 µM: read-out: PRMT4/CARM1 100µM, percent inhibition of the control enzyme activity; for inhibition at 10 µM: read-out: PRMT4/CARM1 10µM, percent inhibition of the control enzyme activity
T1 sequence (Q86X55 1-608): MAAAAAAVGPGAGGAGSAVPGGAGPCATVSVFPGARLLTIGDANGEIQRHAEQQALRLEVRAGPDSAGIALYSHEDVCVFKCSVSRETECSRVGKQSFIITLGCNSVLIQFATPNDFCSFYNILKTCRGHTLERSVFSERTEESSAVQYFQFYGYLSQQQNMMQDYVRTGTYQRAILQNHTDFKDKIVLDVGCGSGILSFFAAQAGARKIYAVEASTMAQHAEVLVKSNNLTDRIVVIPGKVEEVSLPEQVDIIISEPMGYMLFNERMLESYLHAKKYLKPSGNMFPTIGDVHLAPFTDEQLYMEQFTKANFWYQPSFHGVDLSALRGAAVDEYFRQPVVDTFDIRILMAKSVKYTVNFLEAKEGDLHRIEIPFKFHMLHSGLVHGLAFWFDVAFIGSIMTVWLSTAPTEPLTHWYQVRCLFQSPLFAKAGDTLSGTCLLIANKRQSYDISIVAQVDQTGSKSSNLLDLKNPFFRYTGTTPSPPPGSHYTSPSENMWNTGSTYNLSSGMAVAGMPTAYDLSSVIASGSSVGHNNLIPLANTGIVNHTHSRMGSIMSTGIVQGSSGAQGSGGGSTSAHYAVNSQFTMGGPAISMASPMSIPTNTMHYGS
Procedure: (§1) The inhibitory effect of compounds on the methyltransferase activity of human PRMT was evaluated via the measurement of its capacity to transfer methyl groups in a radioactivity assay.
The test compound, reference compound, or water (control) were incubated for 1 h at 22°C with 2.5 ng human PRMT4 enzyme, 60 nM [^3H]SAM and 25 nM Histone H3 full length in a buffer containing 45 mM Tris-HCl (pH 8), 45 mM NaCl, 4.5 mM MgCl2 and 3.6 mM DTT.
(§2) For control basal measurements, the enzyme is omitted from the reaction mixture. Following incubation, the reaction is stopped by adding 33 mM citric acid and the samples are filtered rapidly under vacuum through glass fiber filters (GF/B, Packard) presoaked with 33 mM citric acid and rinsed several times with ice-cold 33 mM citric acid using a 96-sample cell harvester (Unifilter, Packard). The filters are dried then counted for radioactivity in a scintillation counter (Topcount, Packard) using a scintillation cocktail (Microscint 0, Packard).
(§3) The results are expressed as a percent inhibition of the control enzyme activity. The standard reference compound is SAH, which is tested in each experiment at several concentrations to obtain a competition curve from which its IC50 is calculated (Selvi et al., 2010, J. Biol. Chem., 285: 7143).

human PRMT1 enzyme = human PRMT1 enzyme (Homo sapiens, UniProt Q99873); assay: PRMT1 inhibition assay (radioactive [3H]SAM methyl transfer, filter binding); conditions: compound at 100µM, 700 nM [3H]SAM, 50 nM Histone H4 full length, 20 min at 22°C; for inhibition at 100 µM: read-out: PRMT1 100µM, percent inhibition of the control enzyme activity
Sequence of human PRMT1 enzyme (Q99873 whole entry): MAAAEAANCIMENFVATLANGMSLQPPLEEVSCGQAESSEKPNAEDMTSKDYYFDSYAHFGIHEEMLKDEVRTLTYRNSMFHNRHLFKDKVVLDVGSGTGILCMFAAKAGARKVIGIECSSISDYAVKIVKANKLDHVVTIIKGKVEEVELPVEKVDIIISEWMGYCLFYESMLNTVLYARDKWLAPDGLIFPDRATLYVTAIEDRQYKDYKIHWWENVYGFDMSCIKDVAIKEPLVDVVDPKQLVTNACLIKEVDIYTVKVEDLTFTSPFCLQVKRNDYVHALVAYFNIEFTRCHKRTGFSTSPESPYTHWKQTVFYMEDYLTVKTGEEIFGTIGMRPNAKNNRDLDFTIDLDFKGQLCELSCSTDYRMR
Procedure: as §1
The test compound, reference compound, or water (control) were incubated for 20 min at 22°C with 20 ng human PRMT1 enzyme, 700 nM [^3H]SAM and 50 nM Histone H4 full length in a buffer containing 45 mM Tris-HCl (pH 8), 4.5 mM MgCl2, 45 mM NaCl and 3.6 mM DTT.
as §2
The results are expressed as a percent inhibition of the control enzyme activity. The standard reference compound is SAH, which is tested in each experiment at several concentrations to obtain a competition curve from which its IC50 is calculated (Cheng et al., 2004, J. Biol. Chem. 279:23892).

human PRMT7 enzyme = molecular target: T2, human PRMT7 enzyme (Homo sapiens, UniProt Q9NVM4); assay: PRMT7 inhibition assay (radioactive [3H]SAM methyl transfer, filter binding); conditions: 250 nM [3H]SAM, 4 nM Histone H2B (21-41) biotin labelled, 90 min at 22°C; for inhibition at 100 µM: read-out: PRMT7 100µM, percent inhibition of the control enzyme activity; for inhibition at 10 µM: read-out: PRMT7 10µM, percent inhibition of the control enzyme activity
T2 sequence (Q9NVM4 1-692): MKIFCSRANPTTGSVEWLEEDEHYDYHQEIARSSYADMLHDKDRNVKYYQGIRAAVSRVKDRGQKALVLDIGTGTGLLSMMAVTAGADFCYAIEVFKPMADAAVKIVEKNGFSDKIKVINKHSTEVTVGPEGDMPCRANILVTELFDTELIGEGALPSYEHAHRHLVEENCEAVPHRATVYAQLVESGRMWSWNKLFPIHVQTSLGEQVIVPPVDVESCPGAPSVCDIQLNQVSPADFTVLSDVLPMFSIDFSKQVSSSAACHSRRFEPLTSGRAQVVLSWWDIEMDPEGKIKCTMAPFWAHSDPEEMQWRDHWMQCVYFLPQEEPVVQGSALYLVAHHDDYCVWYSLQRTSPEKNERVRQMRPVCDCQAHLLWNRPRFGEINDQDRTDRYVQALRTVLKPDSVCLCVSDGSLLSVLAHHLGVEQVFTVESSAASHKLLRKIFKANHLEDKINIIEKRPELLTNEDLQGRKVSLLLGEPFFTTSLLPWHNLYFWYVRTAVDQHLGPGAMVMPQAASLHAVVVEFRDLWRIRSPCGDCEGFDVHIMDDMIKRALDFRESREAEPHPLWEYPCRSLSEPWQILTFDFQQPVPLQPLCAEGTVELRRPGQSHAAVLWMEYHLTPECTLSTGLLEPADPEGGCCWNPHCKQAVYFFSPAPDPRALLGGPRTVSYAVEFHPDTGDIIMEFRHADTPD
Procedure: as §1
The test compound, reference compound, or water (control) were incubated for 90 min at 22°C with 12.5 ng human PRMT7 enzyme, 250 nM [^3H]SAM and 4 nM Histone H2B (21-41) biotin labelled in a buffer containing 45 mM Tris-HCl (pH 8.7), 0.0045% Tween20, 0.009% HSA and 0.9 mM DTT.
as §2
as §3, with “(Zurita-Lopez” for “(Selvi”, “2012,” for “2010,”, “287(11):7859).” for “285: 7143).”

human PRMT6 enzyme = human PRMT6 enzyme (Homo sapiens, UniProt Q96LA8); assay: PRMT6 inhibition assay (radioactive [3H]SAM methyl transfer, filter binding); conditions: 120 nM [3H]SAM, 25 nM Histone H3 full length, 120 min at 22°C; for inhibition at 10 µM: compound at 10µM, read-out: PRMT6 10µM, percent inhibition of the control enzyme activity; for inhibition at 100 µM: read-out: PRMT6 100µM, percent inhibition of the control enzyme activity
Sequence of human PRMT6 enzyme (Q96LA8 whole entry): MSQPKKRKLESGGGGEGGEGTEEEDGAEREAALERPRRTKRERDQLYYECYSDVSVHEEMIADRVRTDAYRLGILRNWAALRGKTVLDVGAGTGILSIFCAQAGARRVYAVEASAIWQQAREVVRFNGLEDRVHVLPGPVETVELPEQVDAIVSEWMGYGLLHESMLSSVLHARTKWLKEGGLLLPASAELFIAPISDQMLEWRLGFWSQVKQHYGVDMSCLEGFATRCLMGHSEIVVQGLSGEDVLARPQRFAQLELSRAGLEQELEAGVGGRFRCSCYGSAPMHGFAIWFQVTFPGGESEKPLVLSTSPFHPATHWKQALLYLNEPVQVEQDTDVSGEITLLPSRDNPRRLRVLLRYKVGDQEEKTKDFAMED
Procedure: as §1
The test compound, reference compound, or water (control) were incubated for 120 min at 22°C with 10 ng human PRMT6 enzyme, 120 nM [^3H]SAM and 25 nM Histone H3 full length in a buffer containing 45 mM Tris-HCl (pH 8), 45 mM NaCl, 4.5 mM MgCl2 and 3.6 mM DTT.
as §2
The results are expressed as a percent inhibition of the control enzyme activity. The standard reference compound is SAH, which is tested in each experiment at several concentrations to obtain a competition curve from which its IC50 is calculated. (lberg et al., 2007, J. Biol. Chem., 283: 3006).

Molecule | IC50 (human PRMT4 enzyme) [µM] | inhibition at 100 µM (human PRMT4 enzyme; compound at 100µM) [%] | inhibition at 100 µM (human PRMT7 enzyme; compound at 100µM) [%] | inhibition at 10 µM (human PRMT4 enzyme; compound at 10µM) [%] | inhibition at 100 µM (human PRMT1 enzyme) [%] | inhibition at 10 µM (human PRMT7 enzyme; compound at 10µM) [%] | inhibition at 10 µM (human PRMT6 enzyme) [%] | inhibition at 100 µM (human PRMT6 enzyme; compound at 100µM) [%] | other results
1-(methoxymethyl)-5-(N-(5'-deoxyadenosin-5'-yl)aminomethyl)cytosine | 1.9 |  |  |  |  |  |  |  | PRMT4/CARM1 10µM, percent inhibition of the control enzyme activity (human PRMT4 enzyme; compound at 10µM): 81%; PRMT4/CARM1 100µM, percent inhibition of the control enzyme activity (human PRMT4 enzyme; compound at 100µM): 99%; PRMT1 100µM, percent inhibition of the control enzyme activity (human PRMT1 enzyme): 13%; PRMT7 10µM, percent inhibition of the control enzyme activity (human PRMT7 enzyme; compound at 10µM): 33%; PRMT7 100µM, percent inhibition of the control enzyme activity (human PRMT7 enzyme; compound at 100µM): 89%; PRMT6 100µM, percent inhibition of the control enzyme activity (human PRMT6 enzyme; compound at 100µM): 20%
COCn1cc(CNC[C@H]2O[C@@H](n3cnc4c(N)ncnc43)[C@H](O)[C@@H]2O)c(N)nc1=O [Compound A, 1-(methoxymethyl)-5-(N-(5'-deoxyadenosin-5'-yl)aminomethyl)cytosine 5'-deoxy-5'-((1-(methoxymethyl)cytosin-5-yl)methylamino)adenosine] |  | 21 | 12 |  |  |  |  |  | 
COCn1cc(CN(CCC(N)C(=O)O)CC2OC(n3cnc4c(N)ncnc43)C(O)C2O)c(N)nc1=O (centres unmarked) [Compound B] |  | 59 | 81 | 21 | 24 | 30 | 3 | 61 | 
COCn1cc(CN(CCC(N)C(=O)O)CCC2OC(n3cnc4c(N)ncnc43)C(O)C2O)c(N)nc1=O (centres unmarked) [D] | 14 | 88 | 83 | 54 | 42 | 46 | 8 | 47 | 
Nc1nc(=O)n(CCOc2ccccc2)cc1CNCCC1OC(n2cnc3c(N)ncnc32)C(O)C1O (centres unmarked) [E, 5'-deoxy-5'-(N-((1-(2-(4-phenoxy)ethyl)-cytosin-5-yl)methyl)-aminomethyl) adenosine] |  |  |  | 35 |  |  |  |  | 
Nc1nc(=O)n(CCOc2ccc(Br)cc2)cc1CNCC[C@H]1O[C@@H](n2cnc3c(N)ncnc32)[C@H](O)[C@@H]1O [F, 5'-deoxy-5'-(N-((1-(2-(4-bromophenoxy)ethyl)-cytosin-5-yl)methyl)-aminomethyl) adenosine] |  |  |  | 43 |  |  |  |  | 
